Reference: patent US10301690B2, “Streptomyces filamentosus variant and method for producing daptomycin using same” (priority 2013, dated 2019)

Tested on: Staphylococcus aureus
Assay: Agar-well method: growth inhibition of the indicator strain
Format: cell-based
Conditions: 130 μl in agar well, read-out: Radius of inhibition zone
Protocol: A parent strain, streptomyces filamentosus ATCC 31568 was cultured by slant culture at 30° C. for 12 days to collect spores, and then the spores were suspended in a physiological saline, followed by serial dilution of 10^−2, 10^−3, and 10^−4, and plating on plate media. After pre-incubation at 30° C. for 2 hours, the plates were irradiated for 118 seconds in a glove box placed at a distance of 65 cm from two 20 W UV bulbs of 280 nm wavelength. In this regard, the death rate was 99.9%. […] Colonies that survived on the agar plates at 30° C. for 6 days were collected, followed by seed culture and fermentation culture according to a method of the following Example 4. Fermentation was performed using a 500 ml-baffled flask in a shaking incubator under conditions of 30° C., 260 rpm for 7 days.
After completion of the culture, the culture broth was centrifuged. An agar-well method which is a biological detection method was used in order to examine growth inhibition of an indicator strain, Staphylococcus aureus. The agar-well method was applied to the analysis, because this method is an easy and simple method with lower errors, compared to other methods. This method is based on a principle that a diffusion rate is determined by a difference in a concentration gradient upon diffusion of a sample on an agar gel, and the radius of inhibition zone for a predetermined time is known to be proportional to the log of the concentration value. Based on this principle, antibiotic concentrations in unknown samples can be measured. This method was performed by the following procedure: before a trypticase soy broth agar medium solidified, the indicator strain Staphylococcus aureus was added thereto and uniformly suspended therein. The medium was poured into a […] and allowed to solidify. Next, wells were punched into the agar using a stainless steel borer having a diameter of 5 mm, and agar in the well was suctioned by vacuum aspiration. The amount of the sample in the agar well was 130 μl, and a control group daptomycin was prepared and used in an amount of 0, 50, 100, 200, 300, and 1000 μg/ml.

CCCCCCCCCC(=O)N[C@@H](Cc1c[nH]c2ccccc12)C(=O)N[C@H](CC(N)=O)C(=O)N[C@@H](CC(=O)O)C(=O)N[C@@H]1C(=O)NCC(=O)N[C@@H](CCCN)C(=O)N[C@@H](CC(=O)O)C(=O)N[C@H](C)C(=O)N[C@@H](CC(=O)O)C(=O)NCC(=O)N[C@H](CO)C(=O)N[C@@H]([C@H](C)CC(=O)O)C(=O)N[C@@H](CC(=O)c2ccccc2N)C(=O)O[C@@H]1C [Daptomycin, daptomycin]
zone of inhibition at 50 µg/mL (Daptomycin control 0.05 mg/ml): 8.6 mm | zone of inhibition at 100 µg/mL (Daptomycin control 0.10 mg/ml): 10.6 mm | zone of inhibition at 200 µg/mL (Daptomycin control 0.20 mg/ml): 12 mm | zone of inhibition at 300 µg/mL (Daptomycin control 0.30 mg/ml): 13.2 mm | zone of inhibition at 1000 µg/mL (Daptomycin control 1.00 mg/ml): 16 mm
